These results are taken from US20160115141A1, “CARBOXYLIC ACID DERIVATIVES FOR TREATMENT OF OXIDATIVE STRESS DISORDERS” (EDISON PHARMACEUTICALS, INC., priority 2013, published 2016).

For this assay, the system named is FRDA fibroblasts stressed by addition of L-buthionine-(S,R)-sulfoximine (BSO). As to the kind of experiment: Rescue of BSO-stressed human dermal fibroblasts from Friedreich's Ataxia patients (Calcein AM viability). Format: cell-based. To be noted: FRDA fibroblasts GM04078, 1 mM BSO, 48 h, average, compounds of the invention. How it is done: An initial screen was performed to identify compounds effective for the amelioration of redox disorders. Test samples, 4 reference compounds (idebenone, decylubiquinone, Trolox and alpha-tocopherol), and solvent controls were tested for their ability to rescue FRDA fibroblasts stressed by addition of L-buthionine-(S,R)-sulfoximine (BSO), as described in Jauslin et al., Hum. Mol. Genet. 11(24):3055 (2002), Jauslin et al., FASEB J. 17:1972-4 (2003), and International Patent Application WO 2004/003565. […] This specific BSO-mediated cell death can be prevented by administration of antioxidants or molecules involved in the antioxidant pathway, such as alpha-tocopherol, selenium, or small molecule glutathione peroxidase mimetics. However, antioxidants differ in their potency, i.e. the concentration at which they are able to rescue BSO-stressed FRDA fibroblasts.
MEM (a medium enriched in amino acids and vitamins, catalog no. 1-31F24-I) and Medium 199 (M199, catalog no. 1-21F22-I) with Earle's Balanced Salts, without phenol red, were purchased from Bioconcept. Fetal Calf Serum was obtained from PAA Laboratories. Basic fibroblast growth factor and epidermal growth factor were purchased from PeproTech. Penicillin-streptomycin-glutamine mix, L-buthionine (S,R)-sulfoximine, (+)-alpha-tocopherol, decylubiquinone, and insulin from bovine pancreas were purchased from Sigma. Trolox (6-Hydroxy-2,5,7,8-tetramethylchromane-2-carboxylic acid) was obtained from Fluka. Idebenone was obtained from Chemo Iberica. Calcein AM was purchased from Anaspec. Cell culture medium was made by combining 125 ml M199 EBS, 50 ml Fetal Calf Serum, 100 U/ml penicillin, 100 microgram/ml streptomycin, 2 mM glutamine, 10 microgram/ml insulin, 10 ng/ml EGF, and 10 ng/ml bFGF; MEM EBS was added to make the volume up to 500 ml. A 10 mM BSO solution was prepared by dissolving 444 mg BSO in 200 ml of medium (Invitrogen, Carlsbad, Ca.) with subsequent filter-sterilization. During the course of the experiments, this solution was stored at +4° C. […]

One may read the EC50 as the concentration that produces a half-maximal response. As for `CCOC(=O)CCC(C)(O)CCC1=C(C)C(=O)C(C)=C(C)C1=O` (stereo not drawn), the EC50 was 275 nM. Regarding `CC1=C(C)C(=O)C(CCC2(C)CCC(=O)O2)=C(C)C1=O` (stereo not drawn), the EC50 is 270 nM. Consider `CC1=C(C)C(=O)C(CCC(C)(O)CCC(N)=O)=C(C)C1=O` (stereo not drawn), for which the EC50 is 70 nM.
